Data as given in article PMC5428058, “Local delivery of novel MRTF/SRF inhibitors prevents scar tissue formation in a preclinical model of fibrosis” (Scientific Reports, 2017).
pIC50: −log10 of the molar value.

Experiments:
[1] = tested on: human conjunctival fibroblasts; assay: fibroblast-populated collagen contraction assay (human); format: cell-based; conditions: for pIC50: human conjunctival fibroblasts in collagen type I matrix, 7 days
Description: We screened two candidate MRTF/SRF pathway inhibitors, CCG-222740 and CCG-203971, using detached three-dimensional fibroblast-populated collagen gels[56], [57]. Human or rabbit conjunctival fibroblasts were seeded in a collagen Type I matrix (First Link UK Ltd, Birmingham, UK) at a concentration of 0.7 × 10^4 cells/ml. The fibroblast-populated collagen gel mixture was cast into the wells of MatTek dishes (MatTek Corp, MI, USA). The gels were detached from the edges of the well and 2 ml of growth medium were added to each well with 5, 25, 50, 75, or 100 μM of CCG-222740 or CCG-203971 or 0.1% DMSO control. Digital photographs were obtained daily and lattice areas were measured using Image J software (http://rsb.info.nih.gov/ij/). The gel size at day 7 was assessed as a percentage of lattice area on day 0. Each experiment was performed as triplicate gels per condition and the experiment was repeated on three separate days.

[2] = tested on: αSMA-positive human conjunctival fibroblasts; assay: alpha smooth muscle actin staining; format: cell-based; conditions: 48 hours, control 24.5%
Description: Human conjunctival fibroblasts were plated on 20 mm glass coverslips at 1 × 10^5 cells/well in 6-well plates (Falcon, Fisher Scientific). The next day, the fibroblasts were treated for 48 hours with 10 or 25 μM of CCG-222740 or CCG-203971 or 0.1% DMSO control in DMEM +10% FCS. The samples were fixed in 4% paraformaldehyde for 10 minutes, washed three times in PBS, and permeabilised in PBS 0.2% TX-100 (Triton X-100, Sigma) for 20 minutes. The samples were blocked with 5% fetal calf serum/5% bovine serum albumin (Sigma) for 1 hour. The samples were incubated overnight with the Cy3-labelled alpha smooth muscle actin antibody (1:1000, Sigma) in a wet chamber at 4 °C in the dark. The next day, the samples were washed twice in PBS 0.1% TX-100 and incubated with phalloidin (1:200) and DAPI (1:2000) for 1 hour at room temperature. The samples were then mounted on slides and imaged using an Upright780 Zeiss LSM confocal microscope. The proportion of fibroblasts with prominent αSMA-positive stress fibres was quantified visually from three random fields of view per treatment group in 3 independent experiments.

[3] = drug levels in aqueous, vitreous and serum by LC/MS; format: in vivo; conditions: rabbit, day 30, 48 hours after the last subconjunctival dose
Description: All animals were carefully evaluated for any signs of ocular or systemic toxicity during the study. At day 30, 100 µl of aqueous, 1 ml of vitreous, and 1 ml of venous blood were sampled on the rabbit eyes receiving CCG-222740 or CCG-203971 or vehicle control. The venous blood samples were left to clot for 30 minutes at room temperature, spun at 4000 rpm for 15 minutes at 4 °C, and the serum was collected as the supernatant. Samples were extracted in acetonitrile and the levels of CCG-222740 and CCG-203971 were measured in the aqueous, vitreous, and serum using liquid chromatography/mass spectrometry (LC/MS) in the Metabolomics Core at Michigan State University (East Lansing, MI).

[4] = tested on: New Zealand white rabbits; assay: rabbit glaucoma filtration surgery model of scar tissue formation, clinical end-points; format: in vivo; conditions: for increase in IOP survival: 100 μM subconjunctival, IOP remains below baseline; for increase in long-term success of surgery (bleb survival) compared to vehicle control: 100 μl of 100 μM subconjunctival, day 30; for mean day of bleb failure: CCG compounds 100 μM subconjunctival, MMC 0.2 mg/ml intraoperative, vehicle 14 days; for intraocular pressure (IOP): versus vehicle control or baseline
Excerpt: 24 female New Zealand white rabbits (2–2.4 kg, 12—14 weeks, Highgate, UK) underwent experimental glaucoma filtration surgery to the left eye under general anaesthesia, [28]. A superonasal fornix-based conjunctival flap was raised behind the limbus and a micro-vitreoretinal blade (20 gauge, 0.90 mm, Surgistar USA) was used to make a partial thickness scleral tunnel to the corneal stroma. A 22 gauge, 25 mm intravenous cannula was passed through the tunnel and the needle was removed once it was visible in the cornea. The cannula was advanced into the mid-pupillary area, trimmed at its scleral edge and fixed to the scleral surface using a 10–0 nylon suture (Alcon, USA). The conjunctival incision was closed using two interrupted 10–0 nylon sutures. In a randomised, prospective, single-masked observer study, the rabbits received either intraoperative 0.2 mg/ml mitomycin-C (MMC) [N = 6], or postoperative subconjunctival injections (100 μl) of 100 μM CCG-203971 [N = 6] or 100 μM CCG-222740 [N = 6] or vehicle control [N = 6] daily for the first nine days followed by twice weekly for three weeks, [33]. CCG-222740 and CCG-203971 were dissolved in 100% DMSO (Sigma, UK) at 10 mM and then diluted to 100 μM with sterile PBS. The same volume of DMSO was diluted with PBS for the vehicle control. For the MMC-treated group, a small corneal light shield sponge was soaked in 1 ml of 0.2 mg/ml MMC and applied over the conjunctiva for 3 minutes, and the area was then thoroughly washed with 50 ml of physiologic balanced salt solution (Alcon Laboratories, Inc., Fort Worth, TX). All the postoperative subconjunctival injections were given at the same site by a single-masked researcher.
The animals were evaluated twice weekly by a single-masked researcher. Bleb width and length were measured using calipers and intraocular pressures (IOP) were measured using a tonovet (Icare). The primary efficacy end-point was bleb survival as this is indicative of the long-term opening of the filtration pathway created during surgery. Bleb failure was defined as the appearance of a flat, scarred, and vascularised bleb associated with a deep anterior chamber. IOP survival, defined as when the intraocular pressure remains below the baseline IOP measurement, and bleb area were used as secondary end-points. Conjunctival vascularity was graded on a scale of 0 to 3 (0: avascular, 1: normal, 2: hyperaemic, 3: very hyperaemic).

[5] = tested on: ACTA2 in rabbit conjunctival fibroblasts; assay: ACTA2 gene expression by qRT-PCR (rabbit); format: cell-based; conditions: 24 hours
Description: Human or rabbit conjunctival fibroblasts were plated at 1 × 10^5 cells/well in 6-well plates (Falcon, Fisher Scientific). The next day, the fibroblasts were treated with 5, 10, 25, or 50 μM of CCG-222740 or CCG-203971 or 0.1% DMSO control in DMEM +10% FCS for 24 hours. The fibroblasts were then lysed for RNA extraction using the Sigma RNA isolation kit (Sigma-Aldrich), according to the manufacturer’s instructions. Reverse transcription was carried out using the Transcriptor First Strand cDNA Synthesis Kit (Roche), according to the manufacturer’s instructions. qRT-PCR reactions were performed using SYBR green reagents (Life Technologies) on an HT7900 Fast Real-Time PCR system (Applied Biosystems). The human exonic primer sequences were: ACTA2, 5′-[…]-3′, 3′-[…]-5′; CTGF, 5′-CAGAGTGGAGCGCCTGTT-3′, 3′-CTGCAGGAGGCGTTGTCA-5′; GAPDH, 5′-[…]-3′, 3′-[…]-5′. The rabbit exonic primer sequences were ACTA2, 5′- […]-3′, 3′- […]-5′; GAPDH, 5′-CGAGACACGATGGTGAAGG-3′, 3′-[…]-5′. All mRNA values were normalised relative to that of GAPDH. Each experiment was carried out in triplicates for each treatment group and the experiment was repeated three times.

Structure (SMILES) | pIC50 [1] | percentage of αSMA-positive fibroblasts ([2]; 10 μM) [%] | percentage of αSMA-positive fibroblasts ([2]; 25 μM) [%] | drug level in aqueous [3] | drug level in serum [3] | drug level in vitreous [3] | bleb area compared to vehicle control [4] | increase in IOP survival [4] [%] | increase in long-term success of surgery (bleb survival) compared to vehicle control [4] [%] | mean day of bleb failure [4] [days] | intraocular pressure (IOP) [4] | potency in collagen contraction relative to CCG-203971 ([1]; human conjunctival fibroblasts) | ACTA2 gene expression, comparison [5]
O=C(Nc1ccc(Cl)cc1)C1CCCN(C(=O)c2cccc(-c3ccco3)c2)C1 (stereo not drawn) [CCG-203971] | 4.60 | 17.0 | 8.6 | below 20 nM | below 20 nM | below 20 nM | no statistically significant differences | 33 | 33 | 22.5 | remained consistently lower than baseline measurements |  | 
O=C(Nc1ccc(Cl)cc1)C1CN(C(=O)c2cccc(-c3ccco3)c2)CC(F)(F)C1 (stereo not drawn) [CCG-222740] | 5.30 | 9.0 | 2.2 | below 20 nM | below 20 nM | below 20 nM | significantly larger bleb area | 67 | 67 | 28.5 | remained consistently lower than baseline measurements | five times more potent than CCG-203971 | decreased ACTA2 gene expression to a greater extent than CCG-203971
